ChEMBL document CHEMBL1201862, “PubChem BioAssay data set” (2004)
Activity calls are given as the source filed them.

Columns and labels:
[1] = target: T1, Zinc finger protein mex-5 (Caenorhabditis elegans, UniProt Q9XUB2); experiment: MEX-5/TCR-2 RNA interaction inhibitors, dose response, biochemical, C. elegans, fluorescence polarization (AID 1960)
T1 sequence (Q9XUB2 whole entry): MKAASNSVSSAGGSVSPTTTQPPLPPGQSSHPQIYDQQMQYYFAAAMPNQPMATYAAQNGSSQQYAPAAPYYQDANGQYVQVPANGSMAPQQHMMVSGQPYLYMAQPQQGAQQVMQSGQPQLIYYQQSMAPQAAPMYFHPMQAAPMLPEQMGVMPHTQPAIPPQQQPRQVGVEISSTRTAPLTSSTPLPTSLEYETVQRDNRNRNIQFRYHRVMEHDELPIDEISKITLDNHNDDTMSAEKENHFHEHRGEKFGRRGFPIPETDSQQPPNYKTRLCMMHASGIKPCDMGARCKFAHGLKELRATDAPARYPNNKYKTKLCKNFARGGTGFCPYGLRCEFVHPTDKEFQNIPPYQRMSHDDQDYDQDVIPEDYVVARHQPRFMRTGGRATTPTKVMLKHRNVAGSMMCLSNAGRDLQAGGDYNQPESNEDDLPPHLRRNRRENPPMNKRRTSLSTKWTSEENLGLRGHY

[2] = target: Estrogen receptor (Homo sapiens, UniProt P03372);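 note: potency for inhibiting coactivator peptide recruitment to the receptor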
[3] = target: T2, Estrogen receptor beta (Homo sapiens, UniProt Q92731);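 note: recombinant ER-beta bound to coactivator SRC1 peptide in presence of estradiol agonist; inhibitors block coactivator peptide binding and lower the FRET signal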
[4] = target: T3, Bcl-2-like protein 10 (Homo sapiens, UniProt Q9HD36); experiment: displacers of TR3 peptide from Bcl-B, primary screen, selectivity assay for Bfl-1 inhibitor project, biochemical, fluorescence polarization, FITC-TR3 peptide (AID 748);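 note: fluorescence polarization from a fluorescein-labelled TR3 peptide binding purified Bcl-B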
T3 sequence (Q9HD36 whole entry): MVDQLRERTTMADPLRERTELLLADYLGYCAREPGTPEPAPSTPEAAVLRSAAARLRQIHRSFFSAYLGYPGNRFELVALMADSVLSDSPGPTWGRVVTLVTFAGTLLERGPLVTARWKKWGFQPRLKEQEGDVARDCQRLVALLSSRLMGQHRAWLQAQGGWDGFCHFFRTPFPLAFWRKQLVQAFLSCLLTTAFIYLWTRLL

[5] = target: T2, Estrogen receptor beta; experiment: ERβ–SRC-3 coactivator interaction inhibitors, confirmation, orthogonal assay, biochemical, ELISA, streptavidin-HRP readout (AID 1060)
[6] = enhancers of respiration in Yfh1-depleted yeast, dose response, Friedreich's ataxia, plus single-dose screen (AID 1465); type: functional;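 note: yeast depleted of Yfh1p frataxin homolog grown on glycerol needing respiration; WST-1 tetrazolium dye reduction as measure of cellular dehydrogenase metabolic activity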
[7] = cells
[8] = HEp-2 cell cytotoxicity, dose response, cytotoxicity control for RSV inhibitor project, HTS (AID 2410); type: functional; conditions: human respiratory syncytial virus
[9] = Fluorescence-based cell-based high throughput dose response assay for inhibitors of the interaction of nucleotide-binding oligomerization domain containing 2 (NOD2) and the receptor-interacting serine-threonine kinase 2 (RIPK2).; type: functional; conditions: Homo sapiens
[10] = test system: INS1; experiment: beta cell apoptosis inhibitors, cytokine rescue, dose response, luminescence, retest (AID 449756); type: functional, cell-based; conditions: Rattus norvegicus;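 note: cell death triggered by IL-1 beta plus TNF-alpha plus IFN-gamma mixture; protective hits raise ATP signal compared with cytokine alone wells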
[11] = A549 cell cytotoxicity, dose response, cytotoxicity control, plate reader, cherry-pick, antagonist series (AID 743412); type: functional, cell-based
[12] = HEK293 cell cytotoxicity, dose response, cytotoxicity control, plate reader, cherry-picked samples (AID 743446); type: functional, cell-based
[13] = target: Sphingosine 1-phosphate receptor 1 (Homo sapiens, UniProt P21453); type: functional;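 note: Tango beta-arrestin reporter U2OS cells stimulated with S1P near its EC80; inhibitor potency meaning antagonism of receptor activation by the natural agonist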
[14] = HepG2 cell cytotoxicity, dose response, cytotoxicity control, plate reader, cherry-pick, antagonist series (AID 743416); type: functional, cell-based
[15] = target: FAD-linked sulfhydryl oxidase ALR (Homo sapiens, UniProt P55789); experiment: inhibitors of human ALR sulfhydryl oxidase, dose response, biochemical, H2O2 detection, luminescence, cherry-pick (AID 493248)
[16] = MC4R antagonists, dose response, counter-screen for LGR2 antagonist project, cell-based, plate reader, cherry pick (AID 743444); type: functional;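 note: transfected HEK 293 cells stimulated with alpha-MSH peptide; potency of inhibitors of the alpha-MSH evoked signal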
[17] = target: T4, Sphingosine 1-phosphate receptor 4 (Homo sapiens, UniProt O95977); experiment: Late stage fluorescence dose response cell-based screening assay for antagonists of the Sphingosine 1-Phosphate Receptor 4 (S1P4). [Related pubchem assays: 1524 (Confirmation screen (S1P4 antagonists).), 1510 (Primary screen (S1P4 antagonists).), 1853 (Summary AID (S1P4 antagonists).), 1692 (Dose response screen (S1P4 antagonists).)]; type: functional
T4 sequence (O95977 whole entry): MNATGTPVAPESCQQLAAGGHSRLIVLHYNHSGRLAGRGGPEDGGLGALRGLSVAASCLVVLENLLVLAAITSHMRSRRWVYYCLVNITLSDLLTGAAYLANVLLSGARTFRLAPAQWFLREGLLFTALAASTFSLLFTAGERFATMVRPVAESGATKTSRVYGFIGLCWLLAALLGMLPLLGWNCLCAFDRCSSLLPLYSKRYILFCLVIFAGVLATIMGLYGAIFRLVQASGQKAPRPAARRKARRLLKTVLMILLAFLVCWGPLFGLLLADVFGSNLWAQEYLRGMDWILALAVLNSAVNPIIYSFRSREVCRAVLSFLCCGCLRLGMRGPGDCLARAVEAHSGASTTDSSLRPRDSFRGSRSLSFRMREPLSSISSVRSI

[18] = target: Paired box protein Pax-8 (Homo sapiens, UniProt Q06710); experiment: inhibitors of PAX8-driven TPO luciferase reporter, dose response, RMG-I cells, cherry-pick (AID 687027); type: functional, cell-based;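 note: luciferase reporter driven by Pax8 target thyroperoxidase promoter measured by SteadyGlo luminescence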
[19] = LGR2 antagonists, dose response, cell-based, HEK293, CRE-luciferase reporter, cherry pick, set 2 (AID 743343); type: functional;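 note: transfected cells were stimulated with diluted bursicon conditioned medium after compound addition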
[20] = target: T4, Sphingosine 1-phosphate receptor 4; experiment: Fluorescence dose response cell-based high throughput screening assay for antagonists of the Sphingosine 1-Phosphate Receptor 4 (S1P4). [Related pubchem assays: 1524 (Confirmation in triplicates.), 1510 (Primary screen.)]; type: functional

T2 sequence (Q92731 whole entry): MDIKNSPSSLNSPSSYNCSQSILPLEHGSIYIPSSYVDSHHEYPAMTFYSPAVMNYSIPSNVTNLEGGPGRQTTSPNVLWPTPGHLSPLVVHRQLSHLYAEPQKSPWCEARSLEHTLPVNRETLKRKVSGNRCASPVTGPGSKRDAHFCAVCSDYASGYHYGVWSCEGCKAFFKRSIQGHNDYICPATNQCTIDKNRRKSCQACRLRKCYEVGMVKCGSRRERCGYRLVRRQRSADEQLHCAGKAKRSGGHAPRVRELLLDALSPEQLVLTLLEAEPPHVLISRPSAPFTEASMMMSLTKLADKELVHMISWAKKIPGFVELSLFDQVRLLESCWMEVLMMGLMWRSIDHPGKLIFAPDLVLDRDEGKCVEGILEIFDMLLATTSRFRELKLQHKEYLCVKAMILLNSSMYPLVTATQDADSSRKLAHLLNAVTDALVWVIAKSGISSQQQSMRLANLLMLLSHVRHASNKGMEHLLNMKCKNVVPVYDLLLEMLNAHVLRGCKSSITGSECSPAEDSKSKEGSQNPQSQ
Chain of Paired box protein Pax-8 (Q06710 whole entry): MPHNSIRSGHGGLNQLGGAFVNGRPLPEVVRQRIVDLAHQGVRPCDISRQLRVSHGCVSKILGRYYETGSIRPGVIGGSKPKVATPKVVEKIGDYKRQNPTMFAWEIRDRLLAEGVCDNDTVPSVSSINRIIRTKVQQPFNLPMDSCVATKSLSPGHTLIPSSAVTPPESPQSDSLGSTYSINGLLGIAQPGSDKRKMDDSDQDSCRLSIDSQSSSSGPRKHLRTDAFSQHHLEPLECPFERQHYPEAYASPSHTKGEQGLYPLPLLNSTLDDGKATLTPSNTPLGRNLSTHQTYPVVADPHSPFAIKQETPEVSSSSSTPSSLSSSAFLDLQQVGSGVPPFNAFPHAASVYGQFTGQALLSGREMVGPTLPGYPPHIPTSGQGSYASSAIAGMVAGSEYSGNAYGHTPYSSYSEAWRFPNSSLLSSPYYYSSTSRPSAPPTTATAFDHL
Chain of FAD-linked sulfhydryl oxidase ALR (P55789 whole entry): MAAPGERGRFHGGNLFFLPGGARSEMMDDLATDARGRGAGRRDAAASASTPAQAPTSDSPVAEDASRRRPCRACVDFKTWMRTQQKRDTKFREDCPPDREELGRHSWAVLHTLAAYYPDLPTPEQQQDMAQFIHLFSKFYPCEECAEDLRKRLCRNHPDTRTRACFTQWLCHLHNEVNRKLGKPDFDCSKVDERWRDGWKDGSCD
Chain of Sphingosine 1-phosphate receptor 1 (P21453 whole entry): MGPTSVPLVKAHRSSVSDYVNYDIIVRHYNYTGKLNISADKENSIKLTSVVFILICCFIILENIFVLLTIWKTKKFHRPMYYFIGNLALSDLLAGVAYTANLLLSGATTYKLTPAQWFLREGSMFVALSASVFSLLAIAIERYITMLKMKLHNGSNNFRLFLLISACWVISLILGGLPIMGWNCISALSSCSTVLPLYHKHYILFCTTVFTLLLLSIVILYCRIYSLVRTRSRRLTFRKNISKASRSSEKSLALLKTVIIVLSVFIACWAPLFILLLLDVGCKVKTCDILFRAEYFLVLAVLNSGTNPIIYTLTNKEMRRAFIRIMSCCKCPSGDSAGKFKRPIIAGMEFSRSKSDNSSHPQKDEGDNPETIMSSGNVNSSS
Chain of Estrogen receptor (P03372 whole entry): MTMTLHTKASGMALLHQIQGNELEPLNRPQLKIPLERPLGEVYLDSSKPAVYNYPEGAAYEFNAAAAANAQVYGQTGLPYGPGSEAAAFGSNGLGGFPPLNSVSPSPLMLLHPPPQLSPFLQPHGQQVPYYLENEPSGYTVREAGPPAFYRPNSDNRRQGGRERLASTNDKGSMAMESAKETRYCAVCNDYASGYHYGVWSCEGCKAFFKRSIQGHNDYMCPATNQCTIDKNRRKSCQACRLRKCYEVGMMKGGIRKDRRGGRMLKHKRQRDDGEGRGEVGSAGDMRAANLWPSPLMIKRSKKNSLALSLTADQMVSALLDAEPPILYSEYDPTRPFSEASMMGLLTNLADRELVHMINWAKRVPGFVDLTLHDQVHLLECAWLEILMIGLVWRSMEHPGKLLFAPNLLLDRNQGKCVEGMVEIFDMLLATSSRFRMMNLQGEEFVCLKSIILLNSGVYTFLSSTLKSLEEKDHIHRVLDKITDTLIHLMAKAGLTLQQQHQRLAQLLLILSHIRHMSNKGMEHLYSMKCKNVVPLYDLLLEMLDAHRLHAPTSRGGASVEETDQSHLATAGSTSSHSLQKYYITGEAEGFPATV

For `Cc1cc(/C=C2/C(=O)NC(=O)N(c3ccccc3)C2=O)c(C)n1-c1ccc(F)cc1`, the EC50 [1] was 77.3 µM (active) and the IC50 [2] was > 50 µM (not active).
For `O=C(COC(=O)c1cccs1)NCc1ccco1`, the IC50 [3] was > 50 µM (not active), the IC50 [4] was 85.1 µM (inactive) and the IC50 [5] was 8.95 µM (not active).
With `CCCC(C(=O)O)N1C(=O)/C(=C/c2cccn2C)SC1=S` (stereo not given) the EC50 [6] was > 100 µM (active).
For `COc1ccc(CCNC(=O)c2ccc(-c3ccc([N+](=O)[O-])cc3Cl)o2)cc1`, the IC50 [7] was 25.5 µM (active) and the CC50 [8] was 33.6 µM (active).
With `COc1ccc([N+](=O)[O-])c(S(=O)(=O)c2ccccc2)n1` the IC50 [9] was 3.15 µM (active), the AC50 [10] was 7.12 µM (active) and the AC50 [11] was 8.75 µM (active). The AC50 [12] was 8.06 µM (active), the IC50 [13] was 7.19 µM (active) and the AC50 [14] was 7.56 µM (active). For the same compound, the AC50 [15] was 0.501 µM (active), the AC50 [16] was 4.27 µM (active) and the IC50 [17] was 1.42 µM (not active). The AC50 [18] was 8.18 µM (active), the AC50 [19] was 4.61 µM (active) and the IC50 [20] was 0.691 µM (active).
